{"source": "paper PMC7440915", "about": "“Discovery of surrogate agonists for visceral fat Treg cells that modulate metabolic indices in vivo” (eLife, 2020)", "tested_on": "vTreg53 Treg cells and VAT immunocytes", "assay": "Immunocyte composition of spleen and VAT in HFD-fed mice after vTreg53 Treg transfer and immunization", "assay_type": "in vivo, mouse", "from_the_text": "Figure 6. Immunization with Fat1562 expands transferred vTreg53 Treg cells and suppresses HFD-induced VAT inflammation. (A) Scheme of the transfer and immunization protocol. (B) Frequencies of CD45.2^+ cells in Treg cells (n ≥ 7). (C) Frequencies of clonotype^+ cells in transferred CD45.2^+ Treg cells (n ≥ 7). (D) Number of clonotype^+ CD45.2^+ Treg cells in the spleen (n ≥ 7). (E) Number of clonotype^+ CD45.2^+ Treg cells in the VAT (n ≥ 7). (F) Number of total Treg cells in the spleen (n ≥ 7). (G) Number of total Treg cells in VAT (n ≥ 7). (H) Numbers of eosinophils and CD11c^hi inflammatory macrophages in VAT (n ≥ 7). Data are mean ± SD. Data shown are representative of at least two independent experiments. Figure 6—figure supplement 1. Gating strategy. Gating strategy used for detection of VAT Treg cells (top) and, eosinophils or macrophage cells (bottom) by flow cytometry. [drawing 6] TEXT PRINTED IN THE PICTURE: (B) adjuvant: Spl: 0.3 (Gated on Tregs); VAT: 4 (Gated on Tregs) | (B) adjuvant/ Fat1562: Spl: 1.2 (Gated on Tregs); VAT: 53.4 (Gated on Tregs) | (C) adjuvant: Spl: 62.3 (Gated on CD45.2^+ Tregs); VAT: 94.1 (Gated on CD45.2^+ Tregs) | (C) adjuvant/ Fat1562: Spl: 94.1 (Gated on CD45.2^+ Tregs); VAT: 97.8 (Gated on CD45.2^+ Tregs) | (H) adjuvant: 9.3 (Gated on CD45.1^+); 46.3 (Gated on CD45.1^+); 41.3 (Gated on F4/80^+) | (H) adjuvant/ Fat1562: 14.5 (Gated on CD45.1^+); 39.6 (Gated on CD45.1^+); 22.6 (Gated on F4/80^+) DOUBTS OF THE COPYIST ABOUT THIS PICTURE: All values are gate numbers printed inside flow cytometry plots; no measure or unit is printed beside them, so it is uncertain whether they count as results for a substance / 'adjuvant' is the control treatment and 'adjuvant/Fat1562' the test treatment; these are treatment groups, not single compounds / Panel B, adjuvant, VAT: printed as 4, a decimal may be hidden\nMice were asphyxiated with CO2. Epididymal VAT was excised, minced and digested for 20 min with 1.5 mg/ml collagenase type II (Sigma) in Dulbecco’s Modified Eagle’s Medium (DMEM) supplemented with 2% fetal calf serum (FCS) in a 37°C water bath with shaking. The digested materials were filtered through a sieve and then a 40 µm nylon cell strainer. The stromal vascular fraction was collected after centrifugation at 450 g for 10 min. For surface markers, cells were stained with anti-CD45.1 (A20), -CD45.2 (104), -CD3 (17A2), -CD4 (GK1.5), -TCR Vα2 (B20.1), -CD44 (IM7), -CD62L (MEL-14), -CD45 (30-F11), -CD11b (M1/70), -CD11c (N418), -F4/80 (BM8) mAbs (all from Biolegend), and anti-TCR Vβ4 (KT4), anti-Siglec-F (E50-2440) mAbs (both from BD Biosciences), as detailed in experiment descriptions. Foxp3 staining was performed using the Foxp3/Transcription Factor Staining Buffer Set and anti-Foxp3 (FJK-16s) mAb (both from eBioscience). Cells were acquired with an LSRII flow cytometer (BD Biosciences), an Accuri (BD Biosciences) or Cytoflex (Beckman Coulter). Propidium Iodide was used to distinguish live from dead cells. Assays were performed in biological duplicates or triplicates as described in the figure legends. Data were analyzed using FlowJo.\nTo assess early Treg proliferation following peptide stimulation in vivo, 0.4 million Treg cells were sorted from pooled Spl and LNs of 6-8wk-old male CD45.2^+ Tg^+ Foxp3-GFP^KI/y mice by Moflo, labeled by the CellTrace Violet dye (ThermoFisher Scientific), and were i.v.-injected into 6-8wk old male B6.CD45.1^+ mice. The next day, the recipient mice were injected with 200 µg peptides emulsified in CFA (CFA/peptides) s.c. on the lower back. Proliferation of clonotype^+ Tregs in the spleen was determined three days later. To examine the expansion of VAT-Treg cells by peptide immunization, we sorted 0.4 million Treg cells from pooled Spl/LNs of 6-8wk-old male CD45.2^+ Tg^+ Foxp3-GFP^KI/y mice and transferred them i.v. into 6-8wk old male B6.CD45.1^+ mice. […]", "note": "Where no end group is shown, it is not given here."}
{"sequence": "TMYKNPRPMAATG [Fat1562]", "values": [{"measurement": "VAT inflammation", "value": "reduced VAT inflammation"}, {"measurement": "expansion of adoptively transferred vTreg53 cells", "value": "significant expansion"}, {"measurement": "clonotype^+ TCR-tg Treg cells, share of entire VAT-Treg pool", "setting": "VAT, n ≥ 7", "value": "almost half"}, {"measurement": "frequency of CD11c^hi pro-inflammatory macrophages in VAT", "setting": "VAT, n ≥ 7", "value": "reducing the frequency of CD11c^hi pro-inflammatory macrophages"}, {"measurement": "proportion of eosinophils in VAT", "setting": "VAT, n ≥ 7", "value": "significantly increased the proportion of eosinophils"}, {"measurement": "total number of VAT Treg cells", "setting": "VAT, n ≥ 7", "value": "significantly elevated"}, {"measurement": "donor-derived cells, share of total Treg pool in spleen", "setting": "spleen, immunization with Fat1562", "value": "less than 2%"}, {"measurement": "total number of splenic Treg cells", "setting": "spleen, n ≥ 7", "value": "did not show a significant increase"}]}
